Earlier results in patent US6946461B2, “Imidazolophthalazine derivatives as ligands for GABAA receptors” (Merck Sharp & Dohme Ltd., priority 2000, dated 2005).

Experiments:
[1] = in vivo
spatial learning = conditions: reported by McNamara and Skelton

For `COC(=O)c1cc2c(cn1)[nH]c1ccccc12` [β-CCM], the proconvulsant effect [1] is listed as “proconvulsant” and the “spatial learning in the Morris watermaze” value (spatial learning) is listed as “enhanced spatial learning”.
